From US11479551B2, “MTA-cooperative PRMT5 inhibitors” (Mirati Therapeutics, Inc., priority 2019, dated 2022)

How the values were obtained:
[1] = system: HCT116 homozygous MTAP knockout cells; experiment: Proliferation assay (CellTiter-Glo, 10 days of treatment), HCT116 MTAP knockout; type: cell-based; conditions: Homo sapiens, HCT-116, 240 h, read-out: Proliferation HCT116MTAP_KO IC50
Protocol: (§1) 1. HCT116 MTAP Knockout Model
(§2) HCT116 cells were genetically engineered to knock out the function of both MTAP alleles using a CRISPR/Cas9 system and an sgRNA targeting the MTAP gene. Following Cas9/MTAP sgRNA transduction, clones were screened to confirm that each allele of the MTAP gene had been inactivated (i.e., homozygous MTAP knock out) creating an MTAP-deficient cell.
(§3) Control samples were analyzed in parallel.
Briefly, on Day 0, 250 HCT116 parental or HCT116 homozygous MTAP knockout cell were seeded in 96 well plates in McCoy's 5A supplemented with 10% fetal bovine serum and pen/strep and the cells were incubated overnight at 37° C. plus 5% CO2.
The following day, cells were treated with DMSO vehicle control or a dose response of PRMT5 inhibitors and incubated at 37 C plus 5% CO2 for five days. On Day 6, the cells were trypsinized and split 1:10 into new 96-well plates with fresh medium containing the same concentration of PRMT5 inhibitor and incubated for an additional 5 days at 37° C. plus 5% CO^2.
On Day 11, the viability of the cells was measured using a CTG assay kit (CellTiter-Glo; Promega cat.no G7573) in accordance with the manufacturer's instructions. The IC50 values for each compound after 10 days of treatment were calculated using GraphPad PRISM software.

[2] = system: PRMT5-dependent Symmetric Di-methyl Arginine signal in HCT116 homozygous MTAP knockout cells; experiment: SYM11 In-Cell Western, HCT116 MTAP knockout; type: cell-based; conditions: Homo sapiens, HCT-116, 96 h, HCT116 homozygous MTAP knockout cells, 4 days of treatment, SYM11/DRAQ5 ratio; read-out: In-cell-Western (SYM11) HCT116 MTAP_KO IC50
Protocol: as §1, §2, §3
Briefly, on Day 0, 2,000 HCT116 parental or HCT116 homozygous MTAP knockout cells were seeded in 96 well plates in McCoy's 5A supplemented with 10% fetal bovine serum and pen/strep and the cells were incubated overnight at 37° C. plus 5% CO2. The following day, cells were treated with DMSO vehicle control or a dose response of PRMT5 inhibitors, and incubated at 37° C. plus 5% CO^2 for four days.
After 4 days of treatment, the cells were fixed by adding 50 μl of 4% paraformaldehyde solution to each well and the cells were incubated for 20 min at room temperature. The paraformaldehyde solution was removed, 150 μl of ice-cold methanol was added and the plate was placed −20° C. for 10 minutes. The methanol was removed, 150 μl of Odyssey Blocking buffer+0.05% Tween20 was added and the plate was incubated at room temperature with shaking for one hour.
The primary SYM11 antibody solution was removed by aspiration and the wells were washed three consecutive times with phosphate buffered saline containing 0.1% Tween-20 (PBST).
The secondary antibody solution was removed by aspiration and the wells were washed three consecutive times with PB ST.
The SYM11 signal and the DRAQ5 signal were quantified using a Li-Cor Odyssey machine reading at […], respectively. The SYM11/DRAQ5 ratio was used to calculate the inhibition of Symmetric Dimethyl Arginine as percent of DMSO control.

Q: Which results are given for `N#CCc1ccccc1Oc1cncc(-c2ccc3c(=O)[nH]nc(CN)c3c2)c1` [Example 4-235, 2-(2-((5-(4-(aminomethyl)-1-oxo-1,2-dihydrophthalazin-6-yl)pyridin-3-yl)oxy)phenyl)acetonitrile]?
A: IC50 [1]: > 10000 nM; IC50 [2]: > 1000 nM

Q: `Cn1ncc(-c2ccc3c(=O)[nH]nc(CN)c3c2)c1-c1cnn(Cc2cccn(C)c2=O)c1Cl` [Example 4-236, 4-(aminomethyl)-6-(5′-chloro-2-methyl-1′-((1-methyl-2-oxo-1,2-dihydropyridin-3-yl)methyl)-1′H,2H-[3,4′-bipyrazol]-4-yl)phthalazin-1(2H)-one] was tested. Which IC50 [1] did it give?
A: The IC50 was over 1000 nM.

Q: And the IC50 [2]?
A: Its IC50 is over 1000 nM.

Q: With `Cn1ncc(-c2ccc3c(=O)[nH]nc(CN)c3c2)c1-c1ccc2ncsc2c1C#N` [Example 4-237, 6-(4-(4-(aminomethyl)-1-oxo-1,2-dihydrophthalazin-6-yl)-1-methyl-1H-pyrazol-5-yl)benzo[d]thiazole-7-carbonitrile] as the compound, how does the IC50 [1] read?
A: The IC50 was 1040 nM.

Q: What about the IC50 [2] of the same compound?
A: Its IC50 is 136 nM.

Q: `Cn1ncc(-c2ccc3c(=O)[nH]nc(CN)c3c2)c1-c1cccn2cncc12` [Example 4-239, 4-(aminomethyl)-6-(5-(imidazo[1,5-a]pyridin-8-yl)-1-methyl-1H-pyrazol-4-yl)phthalazin-1(2H)-one] was tested. Which IC50 [1] did it give?
A: Its IC50 is over 10000 nM.

Q: What about the IC50 [2] of the same compound?
A: The IC50 was over 1000 nM.

Q: Which results are given for `Cn1ncc(-c2ccc3c(=O)[nH]nc(CN)c3c2)c1-c1cn2ccccc2c1C#N` [Example 4-240, 2-(4-(4-(aminomethyl)-1-oxo-1,2-dihydrophthalazin-6-yl)-1-methyl-1H-pyrazol-5-yl)indolizine-1-cathonitrile]?
A: IC50 [1]: 3560 nM; IC50 [2]: > 1000 nM

Q: With `Cn1ncc(-c2ccc3c(=O)[nH]nc(CN)c3c2)c1-c1cc(Cl)cc(OC(F)F)c1C#N` [Example 4-243, 2-(4-(4-(aminomethyl)-1-oxo-1,2-dihydrophthalazin-6-yl)-1-methyl-1H-pyrazol-5-yl)-4-chloro-6-(difluoromethoxy)benzonitrile] as the compound, how does the IC50 [1] read?
A: Its IC50 is 285 nM.

Q: And the IC50 [2]?
A: The IC50 was 51 nM.

Q: Which results are given for `Cn1ncc(-c2ccc3c(=O)[nH]nc(CN)c3c2)c1-c1sc2ncccc2c1C#N` [Example 4-244, 2-(4-(4-(aminomethyl)-1-oxo-1,2-dihydrophthalazin-6-yl)-1-methyl-1H-pyrazol-5-yl)thieno[2,3-b]pyridine-3-carbonitrile]?
A: IC50 [1]: 327 nM; IC50 [2]: 42 nM

Q: Which results are given for `Cc1c(F)c(-c2c(-c3ccc4c(=O)[nH]nc(CN)c4c3)cnn2C)c(C#N)c2ccccc12` [Example 4-245, 2-(4-(4-(aminomethyl)-1-oxo-1,2-dihydrophthalazin-6-yl)-1-methyl-1H-pyrazol-5-yl)-3-fluoro-4-methyl-1-naphthonitrile]?
A: IC50 [1]: 8 nM; IC50 [2]: 7 nM

Q: Which results are given for `Cn1ncc(-c2ccc3c(=O)[nH]nc(CN)c3c2)c1-c1c(C(F)F)cc2ccccc2c1C#N` [Example 4-246, 2-(4-(4-(aminomethyl)-1-oxo-1,2-dihydrophthalazin-6-yl)-1-methyl-1H-pyrazol-5-yl)-3-(difluoromethyl)-1-naphthonitrile]?
A: IC50 [1]: 72 nM; IC50 [2]: 50 nM

Q: For `Cn1nc(F)c(-c2ccc3c(=O)[nH]nc(CN)c3c2)c1-c1ccc2ccccc2c1C#N` [Example 4-247, 2-(4-(4-(aminomethyl)-1-oxo-1,2-dihydrophthalazin-6-yl)-3-fluoro-1-methyl-1H-pyrazol-5-yl)-1-naphthonitrile], which IC50 [1] is on record?
A: The IC50 was 1810 nM.

Q: What about the IC50 [2] of the same compound?
A: The IC50 was over 1000 nM.

Q: For `Cn1cc2c(C#N)c(-c3c(-c4ccc5c(=O)[nH]nc(CN)c5c4)cnn3C)ccc2n1` [Example 4-248, 5-(4-(4-(aminomethyl)-1-oxo-1,2-dihydrophthalazin-6-yl)-1-methyl-1H-pyrazol-5-yl)-2-methyl-2H-indazole-4-carbonitrile], which IC50 [1] is on record?
A: The IC50 was 1160 nM.

Q: And the IC50 [2]?
A: The IC50 was over 1000 nM.

Q: Which results are given for `Cn1ncc(-c2ccc3c(=O)[nH]nc(CN)c3c2)c1-c1ccc2c(cnn2C)c1C#N` [Example 4-249, 5-(4-(4-(aminomethyl)-1-oxo-1,2-dihydrophthalazin-6-yl)-1-methyl-1H-pyrazol-5-yl)-1-methyl-1H-indazole-4-carbonitrile]?
A: IC50 [1]: 3510 nM; IC50 [2]: > 1000 nM

Q: `Cn1ncc(-c2ccc3c(=O)[nH]nc(CN)c3c2)c1-c1ccc2nscc2c1C#N` [Example 4-250, 5-(4-(4-(aminomethyl)-1-oxo-1,2-dihydrophthalazin-6-yl)-1-methyl-1H-pyrazol-5-yl)benzo[c]isothiazole-4-carbonitrile] was tested. Which IC50 [1] did it give?
A: Its IC50 is 757 nM.

Q: And the IC50 [2]?
A: Its IC50 is 51 nM.

Q: How did the IC50 [1] turn out when `Cn1ncc(-c2ccc3c(=O)[nH]nc(CN)c3c2)c1-c1c(F)ccc(OC2CC2)c1C#N` [Example 4-251, 2-(4-(4-(aminomethyl)-1-oxo-1,2-dihydrophthalazin-6-yl)-1-methyl-1H-pyrazol-5-yl)-6-cyclopropoxy-3-fluorobenzonitrile] was run?
A: The IC50 was 49 nM.

Q: What about the IC50 [2] of the same compound?
A: Its IC50 is 8 nM.

Q: How did the IC50 [1] turn out when `Cn1ncc(-c2ccc3c(=O)[nH]nc(CN)c3c2)c1-c1cc(OC(F)(F)F)cc(OC2CC2)c1C#N` [Example 4-252, 2-(4-(4-(aminomethyl)-1-oxo-1,2-dihydrophthalazin-6-yl)-1-methyl-1H-pyrazol-5-yl)-6-cyclopropoxy-4-(trifluoromethoxy)benzonitrile] was run?
A: Its IC50 is 87 nM.

Q: What about the IC50 [2] of the same compound?
A: The IC50 was 4 nM.

Q: How did the IC50 [1] turn out when `Cn1ncc(-c2ccc3c(=O)[nH]nc([C@H](N)C(F)F)c3c2)c1-c1ccc2ccccc2c1C#N` [Example 9-6, 2-[4-[4-[(1S)-1-amino-2,2-difluoro-ethyl]-1-oxo-2H-phthalazin-6-yl]-2-methyl-pyrazol-3-yl]naphthalene-1-carbonitrile] was run?
A: The IC50 was over 10000 nM.

Q: And the IC50 [2]?
A: The IC50 was over 1000 nM.

Q: `Cn1ncc(-c2cc(C(F)(F)F)c3c(=O)[nH]nc(CN)c3c2)c1-c1ccc2ccccc2c1C#N` [Example 10-13, 2-(4-(4-(aminomethyl)-1-oxo-8-(trifluoromethyl)-1,2-dihydrophthalazin-6-yl)-1-methyl-1H-pyrazol-5-yl)-1-naphthonitrile] was tested. Which IC50 [1] did it give?
A: The IC50 was 85 nM.

Q: What about the IC50 [2] of the same compound?
A: The IC50 was 16 nM.

Q: Which IC50 [1] does the source give for `Cn1ncc(-c2cc(Cl)c3c(=O)[nH]nc(CN)c3c2)c1-c1cccc(OC2CC2)c1C#N` [Example 10-14, 2-(4-(4-(aminomethyl)-8-chloro-1-oxo-1,2-dihydrophthalazin-6-yl)-1-methyl-1H-pyrazol-5-yl)-6-cyclopropoxybenzonitrile] here?
A: The IC50 was 88 nM.

Q: What about the IC50 [2] of the same compound?
A: Its IC50 is 75 nM.

Q: How did the IC50 [1] turn out when `Cc1cc(-c2cnn(C)c2-c2c(F)cc3ccccc3c2C#N)cc2c(CN)n[nH]c(=O)c12` [Example 10-15, 2-(4-(4-(aminomethyl)-8-methyl-1-oxo-1,2-dihydrophthalazin-6-yl)-1-methyl-1H-pyrazol-5-yl)-3-fluoro-1-naphthonitrile] was run?
A: Its IC50 is 13 nM.

Q: And the IC50 [2]?
A: The IC50 was 4 nM.

Q: `Cn1ncc(-c2cc(Cl)c3c(=O)[nH]nc(CN)c3c2)c1-c1c(F)cc2ccccc2c1C#N` [Example 10-17, 2-(4-(4-(aminomethyl)-8-chloro-1-oxo-1,2-dihydrophthalazin-6-yl)-1-methyl-1H-pyrazol-5-yl)-3-fluoro-1-naphthonitrile] was tested. Which IC50 [1] did it give?
A: The IC50 was 21 nM.

Q: And the IC50 [2]?
A: The IC50 was 21 nM.

Q: Which results are given for `Cc1cc(OC2CC2)c(C#N)c(-c2c(-c3cc(Cl)c4c(=O)[nH]nc(CN)c4c3)cnn2C)c1` [Example 10-19, 2-(4-(4-(aminomethyl)-8-chloro-1-oxo-1,2-dihydrophthalazin-6-yl)-1-methyl-1H-pyrazol-5-yl)-6-cyclopropoxy-4-methylbenzonitrile]?
A: IC50 [1]: 312 nM; IC50 [2]: 185 nM

Q: Which IC50 [1] does the source give for `Cc1cc(OC2CC2)c(C#N)c(-c2c(-c3cc(Cl)c4c(=O)[nH]nc(CN)c4c3)cnn2C)c1F` [Example 10-20, 2-(4-(4-(aminomethyl)-8-chloro-1-oxo-1,2-dihydrophthalazin-6-yl)-1-methyl-1H-pyrazol-5-yl)-6-cyclopropoxy-3-fluoro-4-methylbenzonitrile] here?
A: Its IC50 is 35 nM.

Q: What about the IC50 [2] of the same compound?
A: The IC50 was 29 nM.

Q: For `Cc1c(-c2c(-c3ccc4c(=O)[nH]nc(CN)c4c3)cnn2C)ccc2ccccc12` [Example 12-12, 4-(aminomethyl)-6-[1-methyl-5-(1-methyl-2-naphthyl)pyrazol-4-yl]-2H-phthalazin-1-one], which IC50 [1] is on record?
A: Its IC50 is 240 nM.

Q: And the IC50 [2]?
A: The IC50 was 26 nM.

Q: For `Cc1cc2ccccc2c(C#N)c1-c1c(-c2ccc3c(=O)[nH]nc(CN)c3c2)cnn1C` [Example 12-15, 2-[4-[4-(aminomethyl)-1-oxo-2H-phthalazin-6-yl]-2-methyl-pyrazol-3-yl]-3-methyl-naphthalene-1-carbonitrile], which IC50 [1] is on record?
A: Its IC50 is 261 nM.

Q: And the IC50 [2]?
A: Its IC50 is 189 nM.
